Measurements: US20040259934A1, “Inhibiting Coronaviridae viral replication and treating Coronaviridae viral infection with nucleoside compounds” (priority 2003, published 2004)

Columns and labels:
Human coronavirus OC43 [1] = test: Neutral red uptake assay against a coronavirus; type: cell-based; conditions: Betacoronavirus 1, OC43 / SC1, BSC-1
Experimental: (§1) The assays employed to measure activity against coronavirus are described below (wherein CPE=cytopathic effect; FBS=fetal bovine serum; MEM=minimal essential medium; MOI=multiplicity of infection; and NR=neutral red):
(§2) Human coronavirus OC43 was obtained from the American Type Culture Collection (ATCC, Manassas, Va., USA). This virus was originally isolated from the tracheal washings of a person with cold-like symptoms.
(§3) B-SC-1 cells propagated from adult African green kidney cells were grown in MEM supplemented with 0.1% NaHCO3 and 10% FBS. When performing antiviral assays, serum was reduced to 2% and 50 μg/mL gentamicin was added to the medium.
After performing the CPE inhibition assay above, an additional cytopathic detection method was used, in which medium was removed from each well of a plate scored for CPE from a CPE inhibition assay, 0.034% NR was added to each well of the plate and the plate incubated for 2 hr at 37° C. in the dark. The NR solution was then removed from the wells. After rinsing and aspirating to dryness, the remaining dye was extracted for 30 min at room temperature in the dark from the cells using absolute ethanol buffered with Sörenson citrate buffer. […] Absorbances at 540 nm and 450 nm were read with a microplate reader (Bio-Tek EL 1309; Bio-Tek Instruments, Inc., Winooski, Vt.). Absorbance values were expressed as percentages of untreated controls and EC50 and IC50 values were calculated by regression analysis.

Human coronavirus OC43 [2] = test: Cytopathic effect (CPE) inhibition assay against a coronavirus; type: cell-based; conditions: Betacoronavirus 1, OC43 / SC1, BSC-1, 144 h
Experimental: as §1, §2, §3
Each compound was diluted in MEM using a four log dilution series (i.e., 100, 10, 1.0, 0.1 μg/ml) and 100 μL added to the appropriate wells of a 96 well cell culture plate with confluent cells (see plate format below). The coronavirus was diluted in MEM 2% FBS to an MOI=0.001 in a volume of 100 μL and added immediately to plate (usually within 5 minutes of drug addition). […] The plates were then scored for virus cytopathic effect at each dilution of compound tested. The 50% effective concentration (EC50) was calculated by regression analysis using the means of the CPE ratings at each concentration of compound.

C[C@@]1(O)[C@H](O)[C@@H](CO)O[C@H]1n1cnc2c(N)ncnc21 [2′-C-methyladenosine]
EC50 (Human coronavirus OC43 [1]): ≤ 10 µM
EC50 (Human coronavirus OC43 [2]): < 100 µM

C[C@@]1(O)[C@H](O)[C@@H](CO)O[C@H]1n1ccc(N)nc1=O [2′-C-methylcytidine]
EC50 (Human coronavirus OC43 [1]): ≤ 10 µM
EC50 (Human coronavirus OC43 [2]): < 100 µM

C[C@@]1(O)[C@H](O)[C@@H](CO)O[C@H]1n1ccc2c(N)ncnc21 [Example 1, 4-Amino-7-(2-C-methyl-β-D-ribofuranosyl)-7H-pyrrolo[2,3-d]pyrimidine]
EC50 (Human coronavirus OC43 [1]): ≤ 10 µM
EC50 (Human coronavirus OC43 [2]): < 100 µM
